# From patent US12358896B2, “LRRK2 inhibitors and methods of making and using thereof” (DENALI THERAPEUTICS INC., priority 2019, dated 2025)
# Biological target: T1, FLAG-tagged human LRRK2 with G2019S mutation (Homo sapiens, UniProt Q5S007, G2019S)
# T1 construct: expressed in transfected cells; host or cells: HEK293 / 293T cells, transient transfection with pCMV-FLAG-G2019S
# Assay: Inhibition of pSer935 in HEK293 cells with expressed G2019S LRRK2 (Biological Example 4)
# Assay type: cell-based
# Settings: transfected 293T cells, 90 minutes compound treatment, MSD readout; read-out: HEK293T LRRK2 G2019S pS935
# Protocol: In this assay, inhibition of phosphorylation of LRRK2 at residue serine 935 (pS935) by test compound was determined in HEK293 cells.
# HEK293 cells were first transiently transfected with a plasmid harboring FLAG-tagged human LRRK2 cDNA with G2019S mutation (p.G2019S) under the control of CMV promoter for robust overexpression. The levels of phosphorylated Ser935 in G2019S expressing cells with or without compound treatment were measured by MSD using an anti-FLAG capture antibody and a phosho-specific anti-LRRK2 pS935 monoclonal detection antibody. The IC50 was determined by fitting a 10-point dose response data in duplicate with four parameter non-linear regression curve.
# (Day 1) 293T cell seeding: 293T cells were seeded (1.4×10^6/well) into each well of a 6-well plate. After two days in culture, the cell number can grow into 5×10^6/well, so N+1 wells were seeded (enough for N 96 well assay plates).
# (Day 2) 293T cell transfection: 5 μL of pCMV-FLAG-G2019S or pCMV-FLAG-WT LRRK2 (0.5 μg/μL) was added into 145 μL of DMEM medium, and mixed thoroughly by pipette up and down several times. 15 μL of SuperFect Transfection Reagent was added into samples, mixed thoroughly by pipetting up and down several times, and allowed to equilibrate at room temperature for 5-10 minutes. 0.5 mL of pre-warmed cell culture medium was added into samples, and mixed thoroughly by pipetting up and down several times. 650 μL of the mixture was added dropwise into each well of the 6 well plate, the plate was swirled to mix thoroughly, and incubated in a 37° C. incubator with a humidified atmosphere of 5% CO2 for 20-24 hours.
# (Day 3) 293T cells seed into 96 well plates: Cells were harvested and resuspended in cell culture medium at 0.96×10^6 cells/mL density. 50 μL/well cells were plated onto 96-well cell culture plate (48,000 cells/well), and the plates were incubated in a 37° C. incubator with a humidified atmosphere of 5% CO2 for 20-24 hours.
# (Day 4) Inhibitor Treatment and Cell Lysis: The compound destination plates were thawed at room temperature and centrifuged at 2000 rpm. 55 μL cell culture medium was added into compound destination plate, and the plate was warmed at 37° C.
# 50 μL of cell culture medium containing compounds was transferred into cell culture plate. Plates were incubated in a 37° C. incubator with a humidified atmosphere of 5% CO2 for 90 minutes, after which all of compound-containing medium was completely aspirated manually with 300 μL pipette. 100 μL/well of Lysis Buffer was added and the plates sealed, shaken at 4° C. for 30 minutes, and stored at −20° C. until usage.
# (Day 5) MSD procedure: 2 μg/25 μL/well of FLAG antibody diluted in PBS was added into the MSD plate, incubated for two hours at room temperature or overnight at 4° C. (in Day 4). 50 μL (3.9 μg/μL) of FLAG antibody plus 2.5 mL PBS, per 96 well plate, or 50 μL (3.9 μg/μL) anti-FLAG antibody plus 5 mL PBS per 384 well plate. The plates were centrifuged at 1000 rpm for 10 seconds and shaken with a plate shaker for 10 seconds.
# Anti-FLAG antibody was discarded, and the wells were washed using multidrop, low speed, two times with 300 μL/well of wash buffer for a 96 well plate or three times with 70 μL/well of wash buffer for a 384 well plate. 50 μL/well of block buffer for a 96 well plate, or 25 μL/well of block buffer for a 384 well plate, was added and the plates were incubated for two hours at room temperature. The Block buffer was then discarded and the wells washed two times using multidrop, low speed, with 300 μL/well of wash buffer for a 96 well plate, or three times with 70 μL/well of wash buffer for a 384 well plate.
# 25 μL of cell lysate was transferred into a 96 well MSD plate, or 12.5 μL of cell lysate into 384 well MSD plate, and the plates were incubated for one hour at room temperature.
# Note: The cell lysate should be thawed one hour prior to this step, the plate centrifuged at 1000 rpm for one minute, shaken for 30 seconds, and then unsealed for lysate transfer. […]
# T1 sequence (Q5S007 whole entry G2019S): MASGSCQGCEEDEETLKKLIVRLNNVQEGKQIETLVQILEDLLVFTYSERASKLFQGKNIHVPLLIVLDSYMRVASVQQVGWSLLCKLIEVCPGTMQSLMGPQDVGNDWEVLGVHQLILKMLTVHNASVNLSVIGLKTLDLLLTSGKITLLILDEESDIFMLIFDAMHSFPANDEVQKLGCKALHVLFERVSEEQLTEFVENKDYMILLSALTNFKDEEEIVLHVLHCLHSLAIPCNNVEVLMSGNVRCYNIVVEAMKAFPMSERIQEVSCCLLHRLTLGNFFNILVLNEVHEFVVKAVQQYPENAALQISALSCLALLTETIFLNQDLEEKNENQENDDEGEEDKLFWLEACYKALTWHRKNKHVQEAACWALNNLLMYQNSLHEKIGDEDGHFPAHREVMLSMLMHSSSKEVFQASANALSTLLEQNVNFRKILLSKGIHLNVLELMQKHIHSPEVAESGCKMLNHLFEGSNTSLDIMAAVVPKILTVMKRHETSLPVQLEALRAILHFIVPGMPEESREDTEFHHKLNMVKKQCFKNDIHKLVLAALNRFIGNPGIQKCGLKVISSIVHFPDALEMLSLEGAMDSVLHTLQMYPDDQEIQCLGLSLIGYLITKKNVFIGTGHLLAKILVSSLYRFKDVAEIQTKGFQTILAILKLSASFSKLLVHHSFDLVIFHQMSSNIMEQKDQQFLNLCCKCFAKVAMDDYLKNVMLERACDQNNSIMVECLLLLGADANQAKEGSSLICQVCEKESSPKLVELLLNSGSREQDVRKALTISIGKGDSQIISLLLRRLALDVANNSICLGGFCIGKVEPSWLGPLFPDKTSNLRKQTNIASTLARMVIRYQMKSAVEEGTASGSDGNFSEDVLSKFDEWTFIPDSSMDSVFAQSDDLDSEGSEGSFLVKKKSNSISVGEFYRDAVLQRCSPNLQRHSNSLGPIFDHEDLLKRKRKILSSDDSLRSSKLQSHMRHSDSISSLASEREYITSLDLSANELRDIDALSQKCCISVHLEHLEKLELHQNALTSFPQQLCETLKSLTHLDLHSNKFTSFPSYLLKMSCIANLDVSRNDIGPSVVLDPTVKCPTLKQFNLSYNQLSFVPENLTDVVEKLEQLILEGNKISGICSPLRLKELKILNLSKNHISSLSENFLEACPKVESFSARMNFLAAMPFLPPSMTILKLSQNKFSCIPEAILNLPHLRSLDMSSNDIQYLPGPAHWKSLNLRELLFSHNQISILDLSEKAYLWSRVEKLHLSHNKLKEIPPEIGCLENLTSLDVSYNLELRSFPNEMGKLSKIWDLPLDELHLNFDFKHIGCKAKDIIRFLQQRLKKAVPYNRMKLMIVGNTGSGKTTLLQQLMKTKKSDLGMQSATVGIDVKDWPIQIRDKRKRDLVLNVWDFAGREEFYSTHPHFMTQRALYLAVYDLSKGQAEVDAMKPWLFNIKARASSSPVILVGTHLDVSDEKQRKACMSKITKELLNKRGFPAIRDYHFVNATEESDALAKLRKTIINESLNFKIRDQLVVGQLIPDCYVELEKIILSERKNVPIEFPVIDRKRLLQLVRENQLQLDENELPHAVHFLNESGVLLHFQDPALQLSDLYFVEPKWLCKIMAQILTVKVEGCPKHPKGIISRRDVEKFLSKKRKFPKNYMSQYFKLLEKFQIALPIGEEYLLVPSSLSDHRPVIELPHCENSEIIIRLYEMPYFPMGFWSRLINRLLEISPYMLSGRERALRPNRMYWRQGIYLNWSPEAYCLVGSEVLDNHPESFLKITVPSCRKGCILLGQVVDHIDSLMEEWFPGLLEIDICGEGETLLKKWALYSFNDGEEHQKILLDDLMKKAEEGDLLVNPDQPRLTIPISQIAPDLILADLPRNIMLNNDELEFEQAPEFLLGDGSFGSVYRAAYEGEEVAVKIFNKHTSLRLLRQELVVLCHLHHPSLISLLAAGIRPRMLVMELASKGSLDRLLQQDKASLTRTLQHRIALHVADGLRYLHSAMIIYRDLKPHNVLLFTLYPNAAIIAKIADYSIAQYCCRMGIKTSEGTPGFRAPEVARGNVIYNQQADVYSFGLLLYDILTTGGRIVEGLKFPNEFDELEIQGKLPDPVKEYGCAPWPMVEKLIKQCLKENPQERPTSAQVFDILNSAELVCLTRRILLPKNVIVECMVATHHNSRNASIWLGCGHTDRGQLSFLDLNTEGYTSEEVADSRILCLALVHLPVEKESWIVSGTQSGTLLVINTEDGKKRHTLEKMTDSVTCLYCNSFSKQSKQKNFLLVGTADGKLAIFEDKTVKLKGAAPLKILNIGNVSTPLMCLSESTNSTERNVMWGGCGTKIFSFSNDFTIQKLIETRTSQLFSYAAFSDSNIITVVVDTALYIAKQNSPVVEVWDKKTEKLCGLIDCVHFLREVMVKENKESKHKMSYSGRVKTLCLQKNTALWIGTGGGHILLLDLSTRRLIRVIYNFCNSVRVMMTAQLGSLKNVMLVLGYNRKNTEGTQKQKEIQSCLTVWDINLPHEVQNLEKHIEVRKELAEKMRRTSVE
row,IC50,Structure (SMILES)
1,1.83 nM,"CCNc1nc(Nc2cn([C@H]3C[C@H]3C(N)=O)nc2C2CC2)ncc1C(F)(F)F (single isomer, unassigned) [Example 7, (1,2-cis)-2-(3-cyclopropyl-4-((4-(ethylamino)-5-(trifluoromethyl)pyrimidin-2-yl)amino)-1H-pyrazol-1-yl)cyclopropanecarboxamide]"
2,11.8 nM,"CCNc1nc(Nc2cc([C@H]3C[C@H]3C(N)=O)nn2C2CC2)ncc1C(F)(F)F [Comparative Example A, reference compound]"
